Target: T1, Human pyruvate kinase R (PKR) (Homo sapiens, UniProt P30613)
T1 construct: Human pyruvate kinase R (PKR), residues 14-574; 6x-His (N, cleaved yes); 8x-Arg (N, cleaved yes); SUMO (N, cleaved yes); host or cells: E. coli
Assay: Biochemical assay for activation of pyruvate kinase R (Kinase-Glo luminescence, ATP generation)
Settings: for AC50: 0.1 nM PKR, 2 mM FBP, 0.3 mM ADP, 0.1 mM PEP; for PKR % activation: maximal activation level relative to the activation level achieved by AG-348 @ 10 μM
Method in brief: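 E. coli-expressed human PKR, freed of its His-Arg-SUMO tag and purified by anion exchange and size exclusion, was tested for activation. Read-out was luminescent measurement of ATP generation with Kinase-Glo reagent.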

T1 sequence (P30613 14-574): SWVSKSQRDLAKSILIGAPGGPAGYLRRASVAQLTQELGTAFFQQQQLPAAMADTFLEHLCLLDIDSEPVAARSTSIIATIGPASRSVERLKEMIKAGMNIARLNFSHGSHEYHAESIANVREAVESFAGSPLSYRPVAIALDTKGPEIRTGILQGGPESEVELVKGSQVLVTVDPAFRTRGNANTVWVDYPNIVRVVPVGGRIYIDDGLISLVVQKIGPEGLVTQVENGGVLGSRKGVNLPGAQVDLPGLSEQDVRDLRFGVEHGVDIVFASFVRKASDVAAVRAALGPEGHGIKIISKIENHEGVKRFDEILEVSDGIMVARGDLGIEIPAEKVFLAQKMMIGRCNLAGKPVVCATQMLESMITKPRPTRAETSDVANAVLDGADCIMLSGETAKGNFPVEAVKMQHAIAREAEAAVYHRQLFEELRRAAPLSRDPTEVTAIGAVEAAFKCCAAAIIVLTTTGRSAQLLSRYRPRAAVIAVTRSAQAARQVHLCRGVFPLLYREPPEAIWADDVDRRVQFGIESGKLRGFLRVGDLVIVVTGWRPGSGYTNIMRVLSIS

Compound | AC50 [nM] | PKR % activation [%]
O=C1CN([C@@H](C(=O)N2Cc3cn(S(=O)(=O)c4ccc(OC(F)F)cc4)nc3C2)c2ccccc2)C1 (single isomer, unassigned) [Compound 93, 1-[(1R)-2-{2-[4-(difluoromethoxy)benzenesulfonyl]-2H,4H,5H,6H-pyrrolo[3,4-c]pyrazol-5-yl}-2-oxo-1-phenylethyl]azetidin-3-one or 1-[(1S)-2-{2-[4-(difluoromethoxy)benzenesulfonyl]-2H,4H,5H,6H-pyrrolo[3,4-c]pyrazol-5-yl}-2-oxo-1-phenylethyl]azetidin-3-one] | 5550 | 84
O=C([C@@H](c1ccccc1)N1CCC1=O)N1Cc2cn(S(=O)(=O)c3ccc(OC(F)F)cc3)nc2C1 (single isomer, unassigned) [Compound 99, 1-[(1R)-2-{2[4-(difluoromethoxy)benzenesulfonyl]-2H,4H,5H,6H-pyrrolo[3,4-c]pyrazol-5-yl}-2-oxo-1-phenylethyl]azetidin-2-one or 1-[(1S)-2-{2-[4-(difluoromethoxy)benzenesulfonyl]-2H,4H,5H,6H-pyrrolo[3,4-c]pyrazol-5-yl}-2-oxo-1-phenylethyl]azetidin-2-one] | 190 | 92
N[C@@H](C(=O)N1Cc2cn(S(=O)(=O)c3ccc4ncsc4c3)nc2C1)c1cccc(Cl)c1 [Compound 53, (2R)-2-amino-1-[2-(1,3-benzothiazole-6-sulfonyl)-2H,4H,5H,6H-pyrrolo[3,4-c]pyrazol-5-yl]-2-(3-chlorophenyl)ethan-1-one] | 36 | 
Cc1ccccc1[C@@H](N)C(=O)N1Cc2cn(S(=O)(=O)c3ccc4ncsc4c3)nc2C1 [Compound 59, (2R)-2-amino-1-[2-(1,3-benzothiazole-6-sulfonyl)-2H,4H,5H,6H-pyrrolo[3,4-c]pyrazol-5-yl]-2-(2-methylphenyl)ethan-1-one] | 48 | 
O=C([C@@H](c1ccccc1)N1CCC1=O)N1Cc2cn(S(=O)(=O)c3ccc(OC(F)F)cc3)nc2C1 (single isomer, unassigned) [Compound 100, 1-[(1R)-2-{2-[4-(difluoromethoxy)benzenesulfonyl]-2H,4H,5H,6H-pyrrolo[3,4-c]pyrazol-5-yl}-2-oxo-1-phenylethyl]azetidin-2-one or 1-[(1S)-2-{2-[4-(difluoromethoxy)benzenesulfonyl]-2H,4H,5H,6H-pyrrolo[3,4-c]pyrazol-5-yl}-2-oxo-1-phenylethyl]azetidin-2-one] | > 10000 | 0
C[C@](N)(C(=O)N1Cc2cn(S(=O)(=O)c3ccc4ncsc4c3)nc2C1)c1ccccc1 [Compound 60, (2R)-2-amino-1-[2-(1,3-benzothiazole-6-sulfonyl)-2H,4H,5H,6H-pyrrolo[3,4-c]pyrazol-5-yl]-2-phenylpropan-1-one] | 77 | 
O=C(C(CO)c1ccncc1)N1Cc2cn(S(=O)(=O)c3ccc4ncsc4c3)nc2C1 (racemic) [Compound 27, 1-[2-(1,3-benzothiazole-6-sulfonyl)-2H,4H,5H,6H-pyrrolo[3,4-c]pyrazol-5-yl]-3-hydroxy-2-(pyridin-4-yl)propan-1-one] | 39 | 
O=C([C@H](O)c1ccccc1Cl)N1Cc2cn(S(=O)(=O)c3ccc4cn[nH]c4c3)nc2C1 [Compound 67, (2R)-2-(2-chlorophenyl)-2-hydroxy-1-[2-(1H-indazole-6-sulfonyl)-2H,4H,5H,6H-pyrrolo[3,4-c]pyrazol-5-yl]ethan-1-one] | 29 | 
N[C@@H](C(=O)N1Cc2cn(S(=O)(=O)c3ccc(OC(F)F)cc3)nc2C1)c1ccccc1F [Compound 56, (2R)-2-amino-1-{2-[4-(difluoromethoxy)benzenesulfonyl]-2H,4H,5H,6H-pyrrolo[3,4-c]pyrazol-5-yl}-2-(2-fluorophenyl)ethan-1-one] | 30 | 
CC(O)C(C(=O)N1Cc2cn(S(=O)(=O)c3ccc4ncsc4c3)nc2C1)c1ccccc1Cl (single isomer, unassigned) [Compound 69] | 4.7 | 
O=C([C@H](CO)c1ccccc1)N1Cc2cn(S(=O)(=O)c3ccc(OC4COC4)nc3)nc2C1 [Compound 95, (2S)-3-hydroxy-1-(2-{[6-(oxetan-3-yloxy)pyridin-3-yl]sulfonyl}-2H,4H,5H,6H-pyrrolo[3,4-c]pyrazol-5-yl)-2-phenylpropan-1-one] | 7080 | 
O=C([C@H](CO)c1ncccc1F)N1Cc2cn(S(=O)(=O)c3ccc4ncccc4c3)nc2C1 (single isomer, unassigned) [Compound 103, (2S)-2-(3-fluoropyridin-2-yl)-3-hydroxy-1-[2-(quinoline-6-sulfonyl)-2H,4H,5H,6H-pyrrolo[3,4-c]pyrazol-5-yl]propan-1-one or (2R)-2-(3-fluoropyridin-2-yl)-3-hydroxy-1-[2-(quinoline-6-sulfonyl)-2H,4H,5H,6H-pyrrolo[3,4-c]pyrazol-5-yl]propan-1-one] | 220 | 41
O=C([C@H](CO)c1ccccc1F)N1Cc2cn(S(=O)(=O)c3ccc4ncsc4c3)nc2C1 [Compound 79, (2S)-1-[2-(1,3-benzothiazole-6-sulfonyl)-2H,4H,5H,6H-pyrrolo[3,4-c]pyrazol-5-yl]-2-(2-fluorophenyl)-3-hydroxypropan-1-one] | 4.9 | 
O=C([C@H](O)c1ccccc1Cl)N1Cc2cn(S(=O)(=O)c3ccc4ncsc4c3)nc2C1 [Compound 65, (2R)-1-[2-(1,3-benzothiazole-6-sulfonyl)-2H,4H,5H,6H-pyrrolo [3,4-c]pyrazol-5-yl]-2-(2-chlorophenyl)-2-hydroxyethan-1-one] | 6.2 | 
C[C@@H](O)[C@H](C(=O)N1Cc2cn(S(=O)(=O)c3ccc(OC(F)F)cc3)nc2C1)c1ccccc1 [Compound 9] | 147 | 131
Cn1ncc2ccc(S(=O)(=O)n3cc4c(n3)CN(C(=O)[C@H](CO)c3ccccc3)C4)cc21 [Compound 90, (2S)-3-hydroxy-1-{2-[(1-methyl-1H-indazol-6-yl)sulfonyl]-2H,4H,5H,6H-pyrrolo[3,4-c]pyrazol-5-yl}-2-phenylpropan-1-one] | 430 | 
O=C(N1Cc2cn(S(=O)(=O)c3ccc4c(c3)NCCO4)nc2C1)[C@]1(c2ccccn2)CCOC1 (single isomer, unassigned) [Compound 45, 6-({5-[(3S)-3-(pyridin-2-yl)oxolane-3-carbonyl]-2H,4H,5H,6H-pyrrolo[3,4-c]pyrazol-2-yl}sulfonyl)-3,4-dihydro-2H-1,4-benzoxazine or 6-({5-[(3R)-3-(pyridin-2-yl)oxolane-3-carbonyl]-2H,4H,5H,6H-pyrrolo[3,4-c]pyrazol-2-yl}sulfonyl)-3,4-dihydro-2H-1,4-benzoxazine] | 15 | 94
COC(C(=O)N1Cc2cn(S(=O)(=O)c3ccc(OC(F)F)cc3)nc2C1)c1ccccc1F (racemic) [Compound 98, 1-{2-[4-(difluoromethoxy)benzenesulfonyl]-2H,4H,5H,6H-pyrrolo[3,4-c]pyrazol-5-yl}-2-(2-fluorophenyl)-2-methoxyethan-1-one] | 210 | 
O=CN[C@@H](C(=O)N1Cc2cn(S(=O)(=O)c3ccc(OC(F)F)cc3)nc2C1)c1ccccc1F [Compound 78, N-[(1R)-2-{2-[4-(difluoromethoxy)benzenesulfonyl]-2H,4H,5H,6H-pyrrolo[3,4-c]pyrazol-5-yl}-1-(2-fluorophenyl)-2-oxoethyl]formamide] | 4.7 | 
C[C@@](CO)(C(=O)N1Cc2cn(S(=O)(=O)c3ccc4c(c3)OCCO4)nc2C1)c1ccccn1 (single isomer, unassigned) [Compound 48, (2R)-1-[2-(2,3-dihydro-1,4-benzodioxine-6-sulfonyl)-2H,4H,5H,6H-pyrrolo[3,4-c]pyrazol-5-yl]-3-hydroxy-2-methyl-2-(pyridin-2-yl)propan-1-one or (2S)-1-[2-(2,3-dihydro-1,4-benzodioxine-6-sulfonyl)-2H,4H,5H,6H-pyrrolo[3,4-c]pyrazol-5-yl]-3-hydroxy-2-methyl-2-(pyridin-2-yl)propan-1-one] | 223 | 46
COc1ccc(S(=O)(=O)n2cc3c(n2)CN(C(=O)[C@H](CO)c2ccccc2F)C3)cc1 [Compound 88, (2S)-2-(2-fluorophenyl)-3-hydroxy-1-[2-(4-methoxybenzenesulfonyl)-2H,4H,5H,6H-pyrrolo[3,4-c]pyrazol-5-yl]propan-1-one] | 3 | 
N[C@@H](C(=O)N1Cc2cn(S(=O)(=O)c3ccc4c(c3)NCCO4)nc2C1)c1ccccc1 [Compound 16, (2R)-2-amino-1-[2-(3,4-dihydro-2H-1,4-benzoxazine-6-sulfonyl)-2H,4H,5H,6H-pyrrolo[3,4-c]pyrazol-5-yl]-2-phenylethan-1-one] | 156 | 
O=C([C@H](CO)c1ccccc1)N1Cc2cn(S(=O)(=O)c3ccc4c(cnn4C(F)F)c3)nc2C1 [Compound 91, (2S)-1-(2-{[1-(difluoromethyl)-1H-indazol-5-yl]sulfonyl}-2H,4H,5H,6H-pyrrolo[3,4-c]pyrazol-5-yl)-3-hydroxy-2-phenylpropan-1-one] | 14 | 
C[C@@H](O)[C@@H](C(=O)N1Cc2cn(S(=O)(=O)c3ccc(OC(F)F)cc3)nc2C1)c1ccccc1Cl (single isomer, unassigned) [Compound 68] | 10 | 179

— patent publication US20230159538A1, “PYRROLIDINE-PYRAZOLES AS PYRUVATE KINASE ACTIVATORS” (Global Blood Therapeutics, Inc., priority 2020, published 2023)
